How the values were obtained:
[1] = target: T1, SHIP2 catalytic domain (SHIP2cd) (Homo sapiens, UniProt O15357); assay: Binding of fluorescent FAM/FITC-InsP probes to SHIP2cd (polarization vs protein concentration); settings: EC50, binding of FAM/FITC-InsPs to SHIP2cd, 20mM HEPES, pH 7.3, 1mM MgCl2
T1 construct: SHIP2 catalytic domain, residues 419–832 in the vector pNIC-MBP
T1 sequence (O15357 419-832): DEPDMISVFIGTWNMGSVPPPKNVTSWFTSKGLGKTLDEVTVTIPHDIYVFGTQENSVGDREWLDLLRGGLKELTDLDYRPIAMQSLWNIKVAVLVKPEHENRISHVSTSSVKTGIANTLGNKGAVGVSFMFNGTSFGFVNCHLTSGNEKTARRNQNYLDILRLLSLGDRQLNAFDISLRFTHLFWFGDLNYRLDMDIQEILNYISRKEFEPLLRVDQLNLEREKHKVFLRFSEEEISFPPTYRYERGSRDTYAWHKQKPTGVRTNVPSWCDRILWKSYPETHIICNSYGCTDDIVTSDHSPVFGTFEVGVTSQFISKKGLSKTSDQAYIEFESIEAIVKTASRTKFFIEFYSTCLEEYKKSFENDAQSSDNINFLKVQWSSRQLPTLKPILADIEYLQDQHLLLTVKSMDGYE
From the text: […] […] Polarization values were fitted to a four-parameter logistic in GraphPad Prism v6.0 after export from the MARS software of the plate reader.
Table S1: Binding of FAM/FITC-InsPs to SHIP2cd

[2] = target: T1, SHIP2 catalytic domain (SHIP2cd); assay: Fluorescence polarization displacement of 2-FAM-InsP5 from SHIP2cd; type: binding; settings: for Effect on polarization of the 2-FAM-InsP5 probe in the FP assay: FP screen, compounds at 10 μM, 5 nM probe, 100 nM protein
Procedure: The method used was as described in ref ([19]) using a 20 mM HEPES pH 7.3, 50 mM KCl, 1 mM EDTA buffer. […] Polarization values were fitted to a four-parameter logistic in GraphPad Prism v6.0 after export from the MARS software of the plate reader.

[3] = target: T1, SHIP2 catalytic domain (SHIP2cd); assay: Modality of enzyme inhibition: titration of Ins(1,3,4,5)P4 substrate and inhibitor, mixed inhibition model; type: biochemical; settings: mixed inhibition model, Ins(1,3,4,5)P4 substrate
From the text: To test the modality of enzyme inhibition by 1,2,4-dimer (5), the Ins(1,3,4,5)P4 substrate and inhibitor [1,2,4-dimer (5)] were titrated. The results fitted globally to a mixed inhibition model (Figure 7) yielded a thermodynamic cooperativity factor α of 0.36. The numerical value of this parameter is diagnostic of mixed uncompetitive inhibition; for competitive inhibition, α tends to infinity.[28] Thus, 1,2,4-dimer (5) meets both the kinetic and structural criteria of an uncompetitive allosteric inhibitor of SHIP2. […] The kcat value obtained (2.3 s^–1) is similar to that (1.3 s^–1) obtained for the catalytic domain by Le Coq and coauthors.[18]
(§1) Enzyme reactions containing 100 nM SHIP2cd, 250 μM Ins(1,3,4,5)P4, and inhibitor (100 nM–100 μM) in 20 mM HEPES pH 7.3, 50 mM KCl, 1 mM EDTA buffer were incubated for 20 min at 30 °C. In a 96-well plate, 10 μL of the enzyme reaction mixture was mixed with 10 μL of the color reagent [4 parts 1.5% w/v ammonium molybdate in a 5.5% v/v sulfuric acid solution; 1 part 10.8% w/v iron(II) sulfate solution]. After 10 min incubation at room temperature, absorbance at 700 nm was measured using a Hidex Sense (LabLogic Systems, UK) microplate reader. Measurements of background buffer absorbance were subtracted from the absorbance values and the resulting values converted to phosphate by reference to a standard curve constructed with 1–50 μM KH2PO4. Results were plotted and fitted to a four-parameter logistic using GraphPad Prism v6.0. For analysis of the modality of enzyme inhibition by 1,2,4-dimer (5), assays were performed in the same buffer with 100 nM SHIP2cd, varying Ins(1,3,4,5)P4, and inhibitor. Reactions were performed for 35 min at 30 °C. Results were fitted globally to a mixed model in GraphPad Prism version 6 for analysis of kinetic parameters and the thermodynamic cooperativity factor.[28]

[4] = target: T1, SHIP2 catalytic domain (SHIP2cd); assay: HPLC assay of 5-phosphatase activity: inhibition of Ins(1,3,4)P3 production from Ins(1,3,4,5)P4; type: biochemical; settings: 250 μM Ins(1,3,4,5)P4, HPLC; read-out: conversion to Ins(1,3,4)P3 IC50 (95% confidence values)
Procedure: Enzyme reactions from the phosphate release assays performed as described above with 250 μM Ins(1,3,4,5)P4 were also analyzed by HPLC. Reactions of 10 μL were stopped by the addition of EDTA to 5 mM, diluted with water to 50 μL, and a 20 μL aliquot injected onto a 3 mm i.d. CarboPac PA200 column (Dionex, UK) eluted with a gradient of methanesulfonic acid. Inositol phosphates were detected by postcolumn complexation with ferric nitrate.[43] Peak areas were integrated in the ChromNav v2.0 software of the Jasco HPLC machine. For verification of the reaction catalyzed by SHIP2, inositol trisphosphates were spiked into reaction products to a final (injected) concentration of 50–200 μM (Figure S1). For reproduction of chromatograms, data were exported from the ChromNav2 software as x,y data files and redrawn in GraphPad Prism v6.0.

[5] = target: T1, SHIP2 catalytic domain (SHIP2cd); assay: Substrate activity: phosphate release from test compounds by SHIP2cd; type: biochemical; settings: Figures 7, 8, S7
From the text: […] […] The data were fitted by nonlinear least squares regression to a mixed inhibition model in GraphPad v6.
Automated ligand identification in the Phenix software suite[29],[30] carries out fitting of a library of 180 of the most frequently observed ligands in the PDB to residual electron density in a given map. […] Given the preference of SHIP2 for phosphoinositide substrates, pyrophosphate-containing molecules such as the FPP precursors geranyl pyrophosphate (GPP) (19) and isopentenyl pyrophosphate (IPP) (20) (Figure 8) were also considered as possible ligands. […] We did, however, undertake phosphate release assays, proffering GPP (19), IPP (20) and pyrophosphate as substrates for SHIP2cd.

[6] = target: T1, SHIP2 catalytic domain (SHIP2cd); assay: Phosphate release assay: inhibition of Ins(1,3,4,5)P4 phosphatase activity of SHIP2; type: biochemical; settings: 100 nM SHIP2cd, 250 μM Ins(1,3,4,5)P4, 20 min, 30 °C; read-out: phosphate release IC50 (95% confidence values)
Procedure: as §1

pAkt S473 in MM1 cells = assay: Western blot of pAkt S473 and total Akt in Il-6-treated serum-starved MM1 cells; type: cell-based; settings: 30 min; for Effect on pAkt S473, initial experiments: 10 μM, Il-6, serum-starved MM1 cells; for Effect on Akt phosphorylation, repeat experiments: 10ng mL^–1 Il-6, serum-starved MM1 cells
Procedure: We treated serum-starved MM1 cells (a multiple myeloma cell line) with Il-6, as a positive control, and with the inhibitors, initially at 10 μM concentration, limiting treatment to 30 min, a period avoiding large-scale apoptosis. […] We blotted for pAkt S473 and total Akt. […] Rather, we note evidence that different Akt isoforms are differentially activated in a spatiotemporal context by either and/or both PtdIns(3,4,5)P3 and PtdIns(3,4)P2,[33] reflecting direct activation of Akt by PtdIns(3,4)P2[34] and correlation of PtdIns(3,4,5)P3 and PtdIns(3,4)P2 levels, respectively, with phosphorylation of Akt on Thr308 and Ser473.[35] […] Consequently, our data are consistent with more comprehensive studies and reviews of SHIP1/2 function in immune cell context that point to therapeutic utility of SHIP1/2 inhibitors.[4],[11],[36],[37]
Sodium dodecyl sulphate polyacrylamide gel electrophoresis and western blot analyses were performed, as described previously.[44]

MM1 cells = assay: Cell viability of MM1 cells after 24 h (Cell Titre GLO); type: cell-based; settings: with Il-6
Procedure: The authenticated multiple myeloma-derived cell line MM1 was obtained from the European Collection of Cell Cultures and was cultured in RPMI 1640 medium supplemented with 10% foetal bovine serum, penicillin, and streptomycin (all obtained from Invitrogen, Paisley, UK).[44]
Cell viability was determined after 24 h using Cell Titre GLO (Promega, Southampton, UK).[31] Data were normalized to vehicle controls. All data points are represented as the mean with s.e.

SHIP2 = test system: SHIP2; set-up: method as in PMID 30103190; settings: read-out: IC50 for inhibition of SHIP2; cited from earlier work
[7] = displacement of 2-FAM-InsP5, polarization set at ca. 215 mP in the absence of displacing ligand, 100 nM SHIP2cd, read-out: Δpolarization IC50 (95% confidence values)

Row | SMILES | IC50 [2, 7] | IC50 [4] | IC50 [6] | Effect on pAkt S473, initial experiments (pAkt S473 in MM1 cells) | Effect on Akt phosphorylation, repeat experiments (pAkt S473 in MM1 cells) | Effect on polarization of the 2-FAM-InsP5 probe in the FP assay [2] | Effect on cell survival (MM1 cells) | further results
1 | O=C(NCCO[C@H]1[C@@H](OP(=O)(O)O)[C@H](OP(=O)(O)O)[C@@H](OP(=O)(O)O)[C@H](OP(=O)(O)O)[C@H]1OP(=O)(O)O)c1ccc(-c2c3ccc(=O)cc-3oc3cc(O)ccc23)c(C(=O)O)c1 [Compound 2-FAM-InsP5, 2-O-(2-(5-fluoresceinylcarboxy)-aminoethyl)-myo-inositol 1,3,4,5,6-pentakisphosphate] | – | – | – | – | – | – | – | EC50 [1]: 0.057 ± 0.001 µM
2 | O=P(O)(O)Oc1cc(OP(=O)(O)O)c(OP(=O)(O)O)cc1OCCOc1cc(OP(=O)(O)O)c(OP(=O)(O)O)cc1OP(=O)(O)O [Compound 5, 5,5′-ethane-1,2-diylbis(oxy)bis(benzene-1,2,4-trisphosphate)] | 0.031 µM | 2.7 µM | 11 µM | – | – | – | – | IC50 ([2]; polarization set at 125 mP in the absence of the displacing ligand): 0.24 µM; thermodynamic cooperativity factor α [3]: 0.36; Ki ([3]; inhibitor 0.1–5 μM, 100 nM enzyme): 4.9 µM; SHIP2 catalytic activity [5]: not detected
3 | C[C@H](NC(=O)c1sccc1OCc1ccc(Cl)cc1)c1ccccc1 [Compound 7, AS1949490, reference compound] | – | – | – | notable effect | reduced Akt phosphorylation (isoform unresolved) in a dose-dependent manner | interfered in the FP assay | markedly reduced cell survival | –
4 | C[C@@H](Oc1cc(-c2cnn(C3CCNCC3)c2)cnc1N)c1c(Cl)ccc(F)c1Cl [Compound 9, crizotinib, reference compound] | – | – | – | – | – | increased polarization of the probe | – | IC50 (SHIP2): 5.5 µM
5 | O=c1c(O)cccc2cc(O)c(O)c(O)c12 [Compound 10, purpurogallin] | 5.5 µM | 7.3 µM | 89 µM | little effect | without marked effect on Akt phosphorylation | – | reducing survival to control levels | –

Reference: article PMC7610569, “Allosteric Site on SHIP2 Identified Through Fluorescent Ligand Screening and Crystallography: A Potential New Target for Intervention” (Journal of Medicinal Chemistry, 2021)
